# Test results: patent publication US20220184073A1, “USE OF A H3R INVERSE AGONIST FOR THE TREATMENT OF SHIFT WORK DISORDER” (Novartis AG, priority 2017, published 2022)
# Entries after “also recorded” stand apart in the source; their conditions may differ.
# Key:
# [1] = SWD patients; N. Engl. J. Med., 2005, 353, 476-486; cited from earlier work
# histamine in CSF = assay: Histamine (HA) in CSF after single oral dose in healthy volunteers (LC-MS); assay type: in vivo, human; details: for model adjusted geometric mean ratio to baseline of histamine in CSF: 100 mg single oral dose (free form); for Comparison of treatment vs placebo, Estimate (geometric ratio), histamine in CSF: 100 mg single oral dose vs placebo
# Description: (§1) A randomized, double-blind, placebo-controlled, parallel group, exploratory study of single oral doses of Compound (I) (free form) was conducted in healthy volunteers (HVs) to investigate the pharmacodynamic effect of Compound (I) on the release of neurotransmitters in the brain. A total of 16 subjects were enrolled into the study, which was part of a first-in-human (FIH) study.
# (§2) Subjects were randomized in a 1:1 ratio to receive either a single dose of Compound (I) or placebo.
# (§3) On study Day 1 in the afternoon (approximately at 16:00), the HVs underwent lumbar puncture and a spinal catheter was placed for repeated cerebrospinal fluid (CSF) sampling. The spinal catheter was placed under strict surgical aseptic conditions, as per best practice standards, by a board certified anesthesiologist. Two CSF samples were collected before administration of the study drug (Compound (I) or placebo). Study drug was administered in the evening (approximately at 18:00). Thereafter, 10 more CSF samples were collected during 16 hrs following drug administration. The exact timing of sampling (0.5, 1, 1.5, 2, 3, 4, 6, 8, 12 and 16 hr post dose). During the same period, blood samples were also collected for pharmacokinetic (PK) analysis. The subjects remained at bed rest during the CSF sampling procedure and for about 24 hr afterwards. The following safety precautions were taken: (1) proper hydration of the subjects was ensured; (2) the catheter insertion site was assessed on a regular basis for early signs of local infection or CSF leakage; (3) prophylactic interventions/treatments to reduce the risk of venous thrombosis was considered by the Investigator.
# (§4) The dose of Compound (I) (free form) administered to the subjects was 100 mg. Safety, tolerability and PK assessments were made up to 72 hr post dose. Subjects were allowed to leave the study center on Study Day 4 at the discretion of the Investigator, if there were no prohibitive safety findings. The subjects were asked to return to the study site for the study completion evaluation. Safety assessments included physical examinations, electrocardiograms (ECGs), vital signs, standard clinical laboratory evaluations (hematology, blood chemistry, and urinalysis), adverse events (AEs) and serious adverse events (SAEs) monitoring.
# (§5) Biomarkers related to pharmacodynamic (PD) effect of Compound (I) (e.g. histamine [HA], tele-methylhistamine [tMeHA]) were measured in the CSF using LC-MS method.
# LC-MS conditions for histamine (%=percent by volume): Acquity Binary Solvent Manager/Applied Biosystems API 5000; Mobile Phase A: acetonitrile, B: 10 mM ammonium formate pH3; Gradient: 10%A for 0.25 min, increase to 15%A within 0.25 min, increase to 25%A within 4 min, increase to 90%A within 0.10 min, 90%A for 0.9 min, back to 10%A within 0.10 min, 10%A for 2.40 min; Run time: 8 min; Flow rate: 0.35 mL/min; Analytical column: Acquity BEH C18, 150×2.1 mm, 1.7 μm; Temperature: 30° C. The desired compound histamine LC-MS: Rt=3.85 min, m/z 246 (M+H)^+
# (§6) The effect of Compound (I) on CSF biomarkers was assessed using mixed models for repeated measures (MMRM). These parameters were log transformed and analyzed using a model including treatment and timepoint, the treatment*timepoint interaction term, and log transformed baseline as fixed effects. An unstructured residual covariance matrix within subjects was considered as desirable, but an alternative covariance structure (autoregressive) was used due to a lack of fit. The mean difference versus placebo (and its 90% CI) was calculated at each dose level. These were back-transformed to give a geometric ratio (and its 90% CI) between each dose and placebo.
# Subjects: The study population comprised of male and female (of non-child bearing potential) healthy volunteers (HVs) 18-55 years of age. […] BMI=Body weight (kg)/[Height (m)]2. Subjects were able to communicate well with the Investigator, to understand and comply with the requirements of the study. […]
# [2] = test system: tele-methylhistamine in CSF; assay: tele-methylhistamine (tMeHA) in CSF after single oral dose in healthy volunteers (LC-MS); assay type: in vivo, human; details: for model adjusted geometric mean ratio to baseline of tele-methylhistamine in CSF: 100 mg single oral dose (free form); for Comparison of treatment vs placebo, Estimate (geometric ratio), tele-methylhistamine in CSF: 100 mg single oral dose vs placebo
# Description: as §1, §2, §3, §4, §5
# LC-MS conditions for tele-methyl-histamine (%=percent by volume): Acquity Binary Solvent Manager/Applied Biosystems API 5000; Mobile Phase A: acetonitrile, B: 10 mM ammonium formate pH9; Gradient: 15%A for 0.25 min, increase to 25%A within 4.75 min, increase to 90%A within 0.10 min, 90%A for 0.50 min, back to 15%A within 0.10 min, 15%A for 0.60 min; Run time: 6.3 min; Flow rate: 0.65 mL/min; Analytical column: Acquity BEH C18, 150×2.1 mm, 1.7 μm; Temperature: 70° C. The desired compound tele-methyl-histamine LC-MS: Rt=4.66 min, m/z 260 (M+H)^+
# Compound (I) can induce histamine release in a subject and thereby promote wakefulness. The tMeHA is the direct breakdown product of HA and can thus be used as a marker for HA release. In animals, the half-life of HA is about 20 minutes. Therefore HA is not an ideal mechanistic PD marker for Compound (I). due to its short half-life. […] Due to its slower breakdown, tMeHA was expected to be a more useful PD marker of Compound (I) activity than HA itself.
# as §6, with “The mean difference versus placebo (and its 90% CI) was calculated at each dose level. These were back-transformed to give a geometric ratio (and its 90% CI) between each dose and placebo.” left out
# [3] = healthy volunteers, 0.5 hr post-dose
# [4] = healthy volunteers, 1.0 hr post-dose
# [5] = healthy volunteers, 1.5 hr post-dose
# [6] = healthy volunteers, 2.0 hr post-dose
# [7] = healthy volunteers, 3.0 hr post-dose
# [8] = healthy volunteers, 4.0 hr post-dose
# [9] = healthy volunteers, 6.0 hr post-dose
# [10] = healthy volunteers, 8.0 hr post-dose
# [11] = healthy volunteers, 12.0 hr post-dose
# [12] = healthy volunteers, 16.0 hr post-dose
compound,measurement,setting,value
"NC(=O)C[S+]([O-])C(c1ccccc1)c1ccccc1 (stereo not drawn) [modafinil, 2-(benzhydrylsulfinyl)acetamide]",mean sleep latency (MSLT),[1],modest but statistically significant improvement
"Cn1nc(N2CCC(OC(=O)N3CCN(C4CCC4)CC3)CC2)ccc1=O [Compound (I), 1-(1-methyl-6-oxo-1,6-dihydropyridazin-3-yl)piperidin-4-yl 4-cyclobutylpiperazine-1-carboxylate]",model adjusted geometric mean ratio to baseline of histamine in CSF,histamine in CSF; 0.5 hr post-dose,1.27
same,model adjusted geometric mean ratio to baseline of histamine in CSF,histamine in CSF; 1.0 hr post-dose,1.09
same,model adjusted geometric mean ratio to baseline of histamine in CSF,histamine in CSF; 1.5 hr post-dose,0.95
same,model adjusted geometric mean ratio to baseline of histamine in CSF,histamine in CSF; 2.0 hr post-dose,1.02
same,model adjusted geometric mean ratio to baseline of histamine in CSF,histamine in CSF; 3.0 hr post-dose,1.01
same,model adjusted geometric mean ratio to baseline of histamine in CSF,histamine in CSF; 4.0 hr post-dose,0.73
same,model adjusted geometric mean ratio to baseline of histamine in CSF,histamine in CSF; 6.0 hr post-dose,0.63
same,model adjusted geometric mean ratio to baseline of histamine in CSF,histamine in CSF; 8.0 hr post-dose,0.83
same,model adjusted geometric mean ratio to baseline of histamine in CSF,histamine in CSF; 12.0 hr post-dose,0.84
same,model adjusted geometric mean ratio to baseline of histamine in CSF,histamine in CSF; 16.0 hr post-dose,0.92
same,"Comparison of treatment vs placebo, Estimate (geometric ratio), histamine in CSF",histamine in CSF; 0.5 hr post-dose,1.16
same,"Comparison of treatment vs placebo, Estimate (geometric ratio), histamine in CSF",histamine in CSF; 1.0 hr post-dose,0.96
same,"Comparison of treatment vs placebo, Estimate (geometric ratio), histamine in CSF",histamine in CSF; 1.5 hr post-dose,0.97
same,"Comparison of treatment vs placebo, Estimate (geometric ratio), histamine in CSF",histamine in CSF; 2.0 hr post-dose,0.99
same,"Comparison of treatment vs placebo, Estimate (geometric ratio), histamine in CSF",histamine in CSF; 3.0 hr post-dose,1.15
same,"Comparison of treatment vs placebo, Estimate (geometric ratio), histamine in CSF",histamine in CSF; 4.0 hr post-dose,0.79
same,"Comparison of treatment vs placebo, Estimate (geometric ratio), histamine in CSF",histamine in CSF; 6.0 hr post-dose,0.64
same,"Comparison of treatment vs placebo, Estimate (geometric ratio), histamine in CSF",histamine in CSF; 8.0 hr post-dose,1.14
same,"Comparison of treatment vs placebo, Estimate (geometric ratio), histamine in CSF",histamine in CSF; 12.0 hr post-dose,1.14
same,"Comparison of treatment vs placebo, Estimate (geometric ratio), histamine in CSF",histamine in CSF; 16.0 hr post-dose,0.82
same,"mean CSF HA levels, treatment vs placebo (in words)","histamine in CSF; free form, 100 mg, single dose, 16 hrs observation",No clear trend of a difference; also recorded: No treatment response was detected
same,between group difference in CSF tMeHA (statistical significance),[2]; at 1.5 hrs post dose and at all subsequent sampling points,statistically significant
same,time for which mean CSF tMeHA level was increased compared to baseline,"[2]; healthy volunteers, 100 mg single oral dose",about 10 hrs
same,model adjusted geometric mean ratio to baseline of tele-methylhistamine in CSF,[2]; [3],1.01
same,model adjusted geometric mean ratio to baseline of tele-methylhistamine in CSF,[2]; [4],1.17
same,model adjusted geometric mean ratio to baseline of tele-methylhistamine in CSF,[2]; [5],1.30
same,model adjusted geometric mean ratio to baseline of tele-methylhistamine in CSF,[2]; [6],1.73
same,model adjusted geometric mean ratio to baseline of tele-methylhistamine in CSF,[2]; [7],1.64
same,model adjusted geometric mean ratio to baseline of tele-methylhistamine in CSF,[2]; [8],1.21
same,model adjusted geometric mean ratio to baseline of tele-methylhistamine in CSF,[2]; [9],1.59
same,model adjusted geometric mean ratio to baseline of tele-methylhistamine in CSF,[2]; [10],1.20
same,model adjusted geometric mean ratio to baseline of tele-methylhistamine in CSF,[2]; [11],0.79
same,model adjusted geometric mean ratio to baseline of tele-methylhistamine in CSF,[2]; [12],1.04
same,"Comparison of treatment vs placebo, Estimate (geometric ratio), tele-methylhistamine in CSF",[2]; [3],1.02
same,"Comparison of treatment vs placebo, Estimate (geometric ratio), tele-methylhistamine in CSF",[2]; [4],1.10
same,"Comparison of treatment vs placebo, Estimate (geometric ratio), tele-methylhistamine in CSF",[2]; [5],1.39
same,"Comparison of treatment vs placebo, Estimate (geometric ratio), tele-methylhistamine in CSF",[2]; [6],1.77
same,"Comparison of treatment vs placebo, Estimate (geometric ratio), tele-methylhistamine in CSF",[2]; [7],1.88
same,"Comparison of treatment vs placebo, Estimate (geometric ratio), tele-methylhistamine in CSF",[2]; [8],1.63
same,"Comparison of treatment vs placebo, Estimate (geometric ratio), tele-methylhistamine in CSF",[2]; [9],1.85
same,"Comparison of treatment vs placebo, Estimate (geometric ratio), tele-methylhistamine in CSF",[2]; [10],2.14
same,"Comparison of treatment vs placebo, Estimate (geometric ratio), tele-methylhistamine in CSF",[2]; [11],2.45
same,"Comparison of treatment vs placebo, Estimate (geometric ratio), tele-methylhistamine in CSF",[2]; [12],1.57
same,"mean tMeHA level in CSF / ratio to baseline, treatment vs placebo (in words)","[2]; healthy volunteers, 100 mg single oral dose, entire observation period",higher; also recorded: robust increase
